Measured values: patent US20250084041A1, “ANTIMICROBIAL COMPOUNDS AND METHODS” (Curza Global, LLC, priority 2021, published 2025)
Where a name gives a salt, the structure may show the parent alone.

Columns and labels:
P. aeruginosa (Pa) = assay: Broth microdilution MIC, P. aeruginosa; format: cell-based; conditions: Pseudomonas aeruginosa, read-out: Pa + bicarb 25 (MIC)
Summary of the method: (§1)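 Modified CLSI M07-A9 method; cation-adjusted Mueller-Hinton broth, optionally with sodium bicarbonate (25 mM final) or heat-inactivated human serum (0-50%); 5×10^4 CFU/well inoculum.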

E. faecalis (Ef) = assay: Broth microdilution MIC, E. faecalis; format: cell-based; conditions: Enterococcus faecalis, read-out: Ef + bicarb 25 (MIC)
Summary of the method: as §1

E. coli S30 extract = assay: E. coli S30 extract: inhibition of bacterial protein synthesis (luciferase); format: biochemical; conditions: 37° C. 1 hour
Summary of the method: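 Coupled transcription-translation in E. coli S30 extract, programmed with pBESTluc plasmid, was run with 8-point 2-fold compound dilutions for 1 h at 37 °C. After a cold stop, luciferase luminescence was read and percent inhibition calculated against no-inhibitor controls.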

[1] = biological target: Rabbit Reticulocyte Lysate; assay: Rabbit Reticulocyte Lysate: inhibition of eukaryotic protein synthesis (luciferase); format: biochemical; conditions: 30° C. 90 minutes, read-out: Retic. IC50
Summary of the method: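 Nuclease-treated rabbit reticulocyte lysate translating luciferase control RNA with complete amino acids; compounds in 8-point 2-fold dilutions, 90 min at 30° C. Luminescence read after luciferase reagent; % inhibition versus water (no-inhibitor) control, no-RNA wells as background.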

E. coli (Ec) = assay: Broth microdilution MIC, E. coli; format: cell-based; conditions: Escherichia coli, read-out: E. coli + bicarb 25 (MIC)
Summary of the method: as §1

A. baumannii (Ab) = assay: Broth microdilution MIC, A. baumannii; format: cell-based; conditions: Acinetobacter baumannii, read-out: Ab + bicarb 25 (MIC)
Summary of the method: as §1

S. aureus (Sa) = assay: Broth microdilution MIC, S. aureus; format: cell-based; conditions: Staphylococcus aureus, read-out: Sa + bicarb 25 (MIC)
Summary of the method: as §1

Row | SMILES | MIC (P. aeruginosa (Pa)) | MIC (E. faecalis (Ef)) | IC50 (E. coli S30 extract) | IC50 [1] | MIC (E. coli (Ec)) | MIC (A. baumannii (Ab)) | MIC (S. aureus (Sa))
1 | CC(C)(N)C(=O)N1CCN(C(=O)Nc2ccn([C@H]3CC[C@H](CN[C@H]4CC[C@H](N)CC4)CC3)c(=O)n2)CC1 [Compound 18, 4-(2-Amino-2-methylpropanoyl)-N-(1-(trans-4-(((trans-4-aminocyclohexyl)amino)methyl)cyclohexyl)-2-oxo-1,2-dihydropyrimidin-4-yl)piperazine-1-carboxamide hydrochloride salt] | > 32 µg/mL | 8 to 32 µg/mL | < 500 nM | ≥ 1000 nM | < 8 µg/mL | > 32 µg/mL | < 8 µg/mL
2 | CN(C[C@H]1CC[C@H](n2ccc(NC(=O)N3CCN(C(=O)C(C)(C)N)CC3)nc2=O)CC1)[C@H]1CC[C@H](N)CC1 [Compound 19, 4-(2-Amino-2-methylpropanoyl)-N-(1-(trans-4-(((trans-4-aminocyclohexyl)(methyl)amino)methyl)cyclohexyl)-2-oxo-1,2-dihydropyrimidin-4-yl)piperazine-1-carboxamide hydrochloride salt] | > 32 µg/mL | < 8 µg/mL | < 500 nM | ≥ 1000 nM | < 8 µg/mL | 8 to 32 µg/mL | < 8 µg/mL
3 | CC(C)(N)C(=O)N1CCN(C(=O)Nc2ccn([C@H]3CC[C@H](CN4CCC5(CC4)CC(N)C5)CC3)c(=O)n2)CC1 [Compound 20, 4-(2-Amino-2-methylpropanoyl)-N-(1-(trans-4-((2-amino-7-azaspiro[3.5]nonan-7-yl)methyl)cyclohexyl)-2-oxo-1,2-dihydropyrimidin-4-yl)piperazine-1-carboxamide hydrochloride salt] | 8 to 32 µg/mL | < 8 µg/mL | < 500 nM | ≥ 1000 nM | < 8 µg/mL | < 8 µg/mL | < 8 µg/mL
4 | CCN(C[C@H]1CC[C@H](n2ccc(NC(=O)N3CCN(C(=O)C(C)(C)N)CC3)nc2=O)CC1)[C@H]1CC[C@H](N)CC1 [Compound 21, 4-(2-Amino-2-methylpropanoyl)-N-(1-(trans-4-(((trans-4-aminocyclohexyl)(ethyl)amino)methyl)cyclohexyl)-2-oxo-1,2-dihydropyrimidin-4-yl)piperazine-1-carboxamide hydrochloride salt] | 8 to 32 µg/mL | < 8 µg/mL | < 500 nM | ≥ 1000 nM | < 8 µg/mL | 8 to 32 µg/mL | < 8 µg/mL
5 | CC(C)(N)C(=O)N1CCN(C(=O)Nc2ccn(C3=CCC(CN4CCC5(CC4)CC(N)C5)CC3)c(=O)n2)CC1 (stereo not shown) [Compound 25, 4-(2-Amino-2-methylpropanoyl)-N-(1-(4-((2-amino-7-azaspiro[3.5]nonan-7-yl)methyl)cyclohexan-1-en-1-yl)-2-oxo-1,2-dihydropyrimidin-4-yl)piperazine-1-carboxamide hydrochloride salt] | 8 to 32 µg/mL | < 8 µg/mL | < 500 nM | ≥ 1000 nM | < 8 µg/mL | < 8 µg/mL | < 8 µg/mL
6 | CC(C)(N)C(=O)N1CCN(C(=O)Nc2ccn(C3=CCC(CN4CCC(CCN)CC4)CC3)c(=O)n2)CC1 (stereo not shown) [Compound 26, 4-(2-Amino-2-methylpropanoyl)-N-(1-(4-((4-(2-aminoethyl)piperidin-1-yl)methyl)cyclohex-1-en-1-yl)-2-oxo-1,2-dihydropyrimidin-4-yl)piperazine-1-carboxamide hydrochloride salt] | > 32 µg/mL | < 8 µg/mL | < 500 nM | ≥ 1000 nM | < 8 µg/mL | > 32 µg/mL | < 8 µg/mL
7 | CN(CC1CC=C(n2ccc(NC(=O)N3CCN(C(=O)C(C)(C)N)CC3)nc2=O)CC1)[C@H]1CC[C@H](N)CC1 (stereo partly drawn) [Compound 30, trans-4-(2-Amino-2-methylpropanoyl)-N-(1-(4-(((4-aminocyclohexyl)(methyl)amino)methyl)cyclohex-1-en-1-yl)-2-oxo-1,2-dihydropyrimidin-4-yl)piperazine-1-carboxamide hydrochloride salt] | > 32 µg/mL | 8 to 32 µg/mL | < 500 nM | ≥ 1000 nM | < 8 µg/mL | > 32 µg/mL | < 8 µg/mL
8 | CC(C)(N)C(=O)N1CCN(C(=O)Nc2ccn(C3CCC(CN[C@H]4C[C@H](N)C4)CC3)c(=O)n2)CC1 (stereo partly drawn) [Compound 43, trans-4-(2-Amino-2-methylpropanoyl)-N-(1-(4-(((3-aminocyclobutyl)amino)methyl)cyclohexyl)-2-oxo-1,2-dihydropyrimidin-4-yl)piperazine-1-carboxamide hydrochloride salt] | > 32 µg/mL | 8 to 32 µg/mL | < 500 nM | ≥ 1000 nM | < 8 µg/mL | > 32 µg/mL | < 8 µg/mL
9 | CC(C)(N)C(=O)N1CCN(C(=O)Nc2ccn(C3CCC(CN[C@H]4C[C@@H](N)C4)CC3)c(=O)n2)CC1 (stereo partly drawn) [Compound 44, cis-4-(2-Amino-2-methylpropanoyl)-N-(1-(4-(((3-aminocyclobutyl)amino)methyl)cyclohexyl)-2-oxo-1,2-dihydropyrimidin-4-yl)piperazine-1-carboxamide hydrochloride salt] | > 32 µg/mL | 8 to 32 µg/mL | < 500 nM | ≥ 1000 nM | < 8 µg/mL | > 32 µg/mL | < 8 µg/mL
10 | CC(C)(N)C(=O)N1CCN(C(=O)Nc2ccn(C3CCC(CN4CCC5(N)CC5C4)CC3)c(=O)n2)CC1 (stereo not shown) [Compound 45, 4-(2-Amino-2-methylpropanoyl)-N-(1-(4-((6-amino-3-azabicyclo[4.1.0]heptan-3-yl)methyl)cyclohexyl)-2-oxo-1,2-dihydropyrimidin-4-yl)piperazine-1-carboxamide hydrochloride salt] | > 32 µg/mL | < 8 µg/mL | < 500 nM | ≥ 1000 nM | < 8 µg/mL | > 32 µg/mL | < 8 µg/mL
11 | CC(C)(N)C(=O)N1CCN(C(=O)Nc2ccn(C3CCC(CN4CC[C@@H](CN)C4)CC3)c(=O)n2)CC1 (stereo partly drawn) [Compound 46, (S)-4-(2-Amino-2-methylpropanoyl)-N-(1-(4-((3-(aminomethyl)pyrrolidin-1-yl)methyl)cyclohexyl)-2-oxo-1,2-dihydropyrimidin-4-yl)piperazine-1-carboxamide hydrochloride salt] | > 32 µg/mL | > 32 µg/mL | < 500 nM | ≥ 1000 nM | < 8 µg/mL | > 32 µg/mL | < 8 µg/mL
12 | CC(C)(N)C(=O)N1CCN(C(=O)Nc2ccn(C3CCC(CN4CC[C@H](CN)C4)CC3)c(=O)n2)CC1 (stereo partly drawn) [Compound 47, (R)-4-(2-Amino-2-methylpropanoyl)-N-(1-(4-((3-(aminomethyl)pyrrolidin-1-yl)methyl)cyclohexyl)-2-oxo-1,2-dihydropyrimidin-4-yl)piperazine-1-carboxamide Hydrochloride] | > 32 µg/mL | > 32 µg/mL | < 500 nM | ≥ 1000 nM | < 8 µg/mL | > 32 µg/mL | < 8 µg/mL
13 | CCN(C[C@H]1CC[C@H](n2ccc(NC(=O)N3CCN(C(=O)C(C)(C)N)CC3)nc2=O)CC1)C1CC2(CC(N)C2)C1 (stereo partly drawn) [Compound 50, trans-4-(2-Amino-2-methylpropanoyl)-N-(1-(4-(((6-aminospiro[3.3]heptan-2-yl)(ethyl)amino)methyl)cyclohexyl)-2-oxo-1,2-dihydropyrimidin-4-yl)piperazine-1-carboxamide hydrochloride salt] | > 32 µg/mL | < 8 µg/mL | < 500 nM | ≥ 1000 nM | < 8 µg/mL | 8 to 32 µg/mL | < 8 µg/mL
14 | CC(C)(N)C(=O)N1CCN(C(=O)Nc2ccn([C@H]3CC[C@H](CN4CC[C@H](CN)C4)CC3)c(=O)n2)CC1 [Compound 51, (R)-Trans-4-(2-amino-2-methylpropanoyl)-N-(1-(4-((3-(aminomethyl)pyrrolidin-1-yl)methyl)cyclohexyl)-2-oxo-1,2-dihydropyrimidin-4-yl)piperazine-1-carboxamide Hydrochloride] | > 32 µg/mL | 8 to 32 µg/mL | < 500 nM | ≥ 1000 nM | < 8 µg/mL | > 32 µg/mL | < 8 µg/mL
15 | CC(C)(N)C(=O)N1CCN(C(=O)Nc2ccn([C@H]3CC[C@H](CN4CC(N)C4)CC3)c(=O)n2)CC1 [Compound 52, trans-4-(2-Amino-2-methylpropanoyl)-N-(1-(4-((3-aminoazetidin-1-yl)methyl)cyclohexyl)-2-oxo-1,2-dihydropyrimidin-4-yl)piperazine-1-carboxamide hydrochloride salt] | > 32 µg/mL | > 32 µg/mL | 500 to 1000 nM | ≥ 1000 nM | < 8 µg/mL | > 32 µg/mL | 8 to 32 µg/mL
16 | CC(C)(N)C(=O)N1CCN(C(=O)Nc2ccn(C3CCC(CNC4CC5(CC(N)C5)C4)CC3)c(=O)n2)CC1 (stereo not shown) [Compound 53, 4-(2-Amino-2-methylpropanoyl)-N-(1-(4-(((6-aminospiro[3.3]heptan-2-yl)amino)methyl)cyclohexyl)-2-oxo-1,2-dihydropyrimidin-4-yl)piperazine-1-carboxamide hydrochloride salt] | > 32 µg/mL | 8 to 32 µg/mL | < 500 nM | ≥ 1000 nM | 8 to 32 µg/mL | > 32 µg/mL | < 8 µg/mL
